Source: patent US12382955B2, “Peroxyformic acid compositions for membrane filtration cleaning in energy services” (priority 2016, dated 2025)

Tests used:
oil and gas biofilm = experiment: Biofilm percent reductions (Example 5)
[1] = Membrane compatibility, simulated exposure soak, clean water flux and salt rejection (Example 4); conditions: Koch HRX, PFA 300 ppm, 77 F
Method: The effects of PFA on reverse osmosis members which contain a polyamide structure in comparison with known control chemicals were tested. Three different membranes were tested including Koch HRX, Hydranautics CPA5 and Hydranautics ESPA2+. Membranes were soaked in duplicate, in chemistries according to Table 4.
Membranes were then conditioned in Ultrasil 110 at a pH of 11 for 90 minutes at 50° C., followed by a rinse in DI water.
Each of the chemistries, with the exception of PFA was refreshed daily. PFA was refreshed hourly. After the simulated exposure the membranes are rinsed with DI water and placed on the Flat Sheet Membrane skid (Model M20). The membranes were rinsed with DI water for 24 hours at standard UF pressure and temperature. Once 24 hours was completed the membranes were subjected to alkaline conditioning step until solution pH is 11. 15.14 grams of NaCl was added to the recirculating water (2000 ppm NaCl) and the system was allowed to continue circulating. The conductivity of each permeate tube and feed was then measured and recorded and shown as percent rejection. The percent rejection was determined by (conductivity of the feed−conductivity of the permeate)/(conductivity of the feed).

| SMILES | Biofilm percent reductions, ATP (oil and gas biofilm; 250 ppm) [%] | Biofilm percent reductions, Total biofilm (oil and gas biofilm; 250 ppm) [%] | inhibition at 250 ppm (oil and gas biofilm; read-out: Biofilm percent reductions, Viable biofilm) [%] | Water Flux (LMH) PFA 1 YR ([1]; simulated 1 year, 78 hr soak) [LMH] | Water Flux (LMH) PFA 3 YR ([1]; simulated 3 years, 234 hr soak) [LMH] | Biofilm percent reductions, ATP (oil and gas biofilm; 75 ppm active) [%] | Biofilm percent reductions, Total biofilm (oil and gas biofilm; 75 ppm active) [%] | Biofilm percent reductions, Viable biofilm (oil and gas biofilm; 75 ppm active) [%] |
| --- | --- | --- | --- | --- | --- | --- | --- | --- |
| O=CCCCC=O [Glutaraldehyde, reference compound] | 94 | 58 | 81 | – | – | – | – | – |
| O=COO [PFA, peroxyformic acid] | – | – | – | 65.40 | 75.84 | 99 | 85 | 96 |
